Measured values as given in PubChem BioAssay AID1996.
≈ marks a conversion by molar mass, not a printed value.

Conditions: buffer; pH 7.4; 200.0 µM

Structure (SMILES)	solubility kinetic
Cc1ccc(OCC(=O)NCCCNC(=O)c2ccccn2)cc1	> 49.1 µg/mL
Cc1ccc(-n2c(=O)[nH]c3c(C(N)=O)nc(C(C)C)nc32)cc1	9.4 µg/mL (≈ 30.2 µM)
O=C([O-])Cc1csc(-c2cccc(Oc3ccccc3)c2)n1.[Na+]	49.3 µg/mL
COc1ccccc1NC(=O)CC(=O)c1cccc([N+](=O)[O-])c1	2.9 µg/mL (≈ 9.23 µM)
Cc1cccc(NC(=O)NC2(C)CCS(=O)(=O)C2)c1 (centres undefined)	> 42.4 µg/mL
CCn1cnc2c1c(=O)[nH]c(=O)n2Cc1ccccc1	34.6 µg/mL (≈ 128 µM)
O=C(NCc1ccccn1)c1n[nH]c(=O)c2ccccc12	> 42 µg/mL
C=CCn1c(O)c(C=Nc2ccc(CN3CCCCC3)cc2)c(=O)[nH]c1=S	51.8 µg/mL (≈ 135 µM)
COc1ccccc1CNC(=O)CN1C(=O)NC2(CCCCCCC2)C1=O	> 56 µg/mL
O=C(OCc1ccc(Br)cc1)c1cccnc1	40.5 µg/mL (≈ 139 µM)
O=C1CN(C(=O)COC(=O)/C=C/c2ccc(F)cc2)c2ccccc2N1	4.6 µg/mL (≈ 13 µM)
N#CN=C(c1ccccc1)c1ccccc1	30.4 µg/mL (≈ 147 µM)
Cc1nnc(NC(=O)C(C)Sc2nnc(-c3ccco3)n2C)s1 (centres undefined)	> 52.6 µg/mL
CC(CN1CCN(C)CC1)OC(=O)c1ccc(F)cc1.Cl (centres undefined)	> 47.5 µg/mL
Cc1ccc(C(=O)NC(=S)N2CCCC2)cc1	> 37.3 µg/mL
O=C1CCCc2c1nc(-c1ccc([N+](=O)[O-])cc1)n2O	> 41 µg/mL
COc1ccc(C(=O)NCCNc2nc3c(C)cccc3cc2C#N)cc1	0.4 µg/mL (≈ 1.11 µM)
COc1ccc(O)c(C2=Nc3ccccc3N=C(c3ccccc3)C2)c1	< 0.4 µg/mL
COc1ccc(OC)c(/C=C/C(=O)OCC(=O)N2CCCCC2)c1	> 50 µg/mL
Nc1nc(NCCc2ccccc2)nc(NCc2ccccc2)c1[N+](=O)[O-]	0.2 µg/mL (≈ 0.549 µM)
COc1ccc(OCC(=O)OC(C)CN2CCCCC2)cc1 (centres undefined)	> 46.1 µg/mL
O=C(O)c1ccccc1NC(=O)c1ccccc1-c1ccccc1C(=O)O	> 54.2 µg/mL
CC(C)(C#CC(O)(c1ccccc1)c1ccccc1)N1CCCC1.Cl	> 53.4 µg/mL
CC(=O)Nc1ccc(NC(=S)NC(=O)C2CC2)cc1	32.2 µg/mL (≈ 116 µM)

Structure (SMILES)	solubility kinetic
Cc1cc(C)c(C#N)c(SCc2ccc(C(=O)O)cc2)n1	> 44.8 µg/mL
O=C(/C=C/c1c(F)cccc1Cl)N1CCOCC1	39.8 µg/mL (≈ 148 µM)
Cc1cc(NC(=O)c2cc(-c3ccncc3)nc3ccccc23)ccc1Br	1.2 µg/mL (≈ 2.87 µM)
CN(C)c1ccc(N=Cc2cccn2C)cc1	> 34.1 µg/mL
COc1nc(NC2CCCCC2)nc(NC(C)(C)C)n1	20.7 µg/mL (≈ 74.1 µM)
S=C(NC1CCCCC1)N1CCn2cccc2C1c1ccncc1 (centres undefined)	36.1 µg/mL (≈ 106 µM)
N#C/C(=C\c1ccccc1)C(=O)Nc1cccnc1	18.3 µg/mL (≈ 73.4 µM)
COc1ccc(-c2cc(C(=O)N3CCCC3)no2)cc1	30.4 µg/mL (≈ 112 µM)
O=[N+]([O-])c1cc(S(=O)(=O)N2CCOCC2)ccc1NS(=O)(=O)c1ccccc1	> 64.1 µg/mL
O=S(=O)(c1ccccc1)N(Cc1cccc(F)c1)c1ccccc1	< 0.7 µg/mL
COc1ccccc1C(=O)N=c1sc2c(C)ccc(OC)c2n1C	1.8 µg/mL (≈ 5.26 µM)
C=CCc1cccc2cc(C(=O)Nc3ccc(NC(C)=O)cc3)c(=O)oc12	1.7 µg/mL (≈ 4.69 µM)
CC1(CCc2ccccc2)NC(=O)N(CC(=O)Nc2c(F)cccc2F)C1=O (centres undefined)	> 58.1 µg/mL
CCOC(=O)C1CCN(S(=O)(=O)c2c(Cl)ccc3nonc23)CC1	> 56.1 µg/mL
CC(C)(C)C(=O)Nc1nnc(SCC(=O)NC2CC2)s1	> 47.2 µg/mL
Cc1cc(C)nc(SCC(=O)NC(=O)c2ccccc2O)n1	> 47.6 µg/mL
Cc1cccc(NC(=O)CN(CCc2ccccc2)S(C)(=O)=O)c1	> 52 µg/mL
O=C1C=CC(=O)N1	9 µg/mL (≈ 92.7 µM)
Cc1ccc(NC(=O)c2cc3ccccc3cc2O)cc1	< 0.6 µg/mL
C/C(=N\NC(=O)c1ccncc1)c1cccs1	> 36.8 µg/mL
COc1ccc(Br)cc1/C=C(\C(=O)O)c1ccc(S(=O)(=O)N2CCCC2)s1	> 70.9 µg/mL
NC(=O)c1ccc(NC(=O)CCN2C(=O)c3ccccc3C2=O)cc1	10.6 µg/mL (≈ 31.4 µM)
Cc1cc2oc(=O)cc(Cn3ccnc3)c2cc1Cl	34.3 µg/mL (≈ 125 µM)
CCOC(=O)c1c(C)c2c(=O)[nH]cnc2n1-c1ccccc1	2.2 µg/mL (≈ 7.4 µM)

Structure (SMILES)	solubility kinetic
O=C(Nc1nc2ccccc2s1)Nc1ccc(F)cc1F	< 0.2 µg/mL
CC(=O)c1sc(NC(C)c2ccccc2)nc1C (centres undefined)	30.4 µg/mL (≈ 117 µM)
CC(C)NC(=O)C1c2ccccc2Oc2ccccc21	1.1 µg/mL (≈ 4.11 µM)
CC1CCN(C(=O)COC(=O)c2cn(C)c3ccccc23)CC1	> 47.2 µg/mL
COc1ccc(Cl)cc1N1C(=N)SCC1=O	> 38.5 µg/mL
CCCc1nc2oc3ccccc3c(=O)c2c(=O)n1-c1ccccc1	37.2 µg/mL (≈ 112 µM)
COC(=O)c1sccc1NC(=O)Nc1cccc(C(C)=O)c1	19.1 µg/mL (≈ 60 µM)
CCc1ccccc1NC(=O)c1ccc(OCc2c(C)noc2C)cc1	3.7 µg/mL (≈ 10.6 µM)
COc1ccccc1NC(=S)N1CCCc2ccccc21	22.9 µg/mL (≈ 76.7 µM)
O=C(Nc1ccc(F)cc1F)NC1CCCc2ccccc21 (centres undefined)	0.3 µg/mL (≈ 0.992 µM)
CN(CCOC(=O)/C=C/c1ccco1)Cc1ccccc1	> 42.8 µg/mL
Cc1nc2ccccc2c(=O)n1-c1ccc(Cl)cc1Cl	> 45.8 µg/mL
CC(=O)NC(CC(=O)N(C)C1CCCCC1)c1ccccc1 (centres undefined)	> 45.4 µg/mL
Cl.Clc1ccccc1CSC1=NCCN1	> 39.5 µg/mL
CCCCOc1cccc(C(=O)Nc2ccccc2N2CCCC2)c1	1.2 µg/mL (≈ 3.55 µM)
Cc1ccc(NS(=O)(=O)c2cccs2)c(C)c1	39.1 µg/mL (≈ 146 µM)
NC(=O)CSc1nc2cc(S(=O)(=O)N3CCOCC3)ccc2o1	> 53.6 µg/mL
O=C(Cc1ccc([N+](=O)[O-])cc1)c1ccc(O)cc1O	> 41 µg/mL
CCNC(=O)COC(=O)CCC(=O)c1ccc(F)cc1	> 42.2 µg/mL
Cl.NC(CCC(=O)O)C12CC3CC(CC(C3)C1)C2 (centres undefined)	> 41.1 µg/mL
COP(=O)(OC)c1nc(-c2ccc(C)cc2)oc1N1CCCCC1	> 52.6 µg/mL
CCCC(=O)Nc1nnc(-c2ccc3c(c2)OCCO3)o1	> 43.4 µg/mL
O=C(O)c1ccc(/C=N/NC(=S)NCCN2CCOCC2)cc1	> 50.5 µg/mL
CCN(CC)P(=O)(Oc1ccccc1)Oc1ccccc1	34.2 µg/mL (≈ 112 µM)

Structure (SMILES)	solubility kinetic
O=C(COC(=O)Cc1ccc(S(=O)(=O)N2CCOCC2)s1)Nc1ccc(F)cc1F	> 69.1 µg/mL
CSc1ccccc1C(=O)Nc1c(C)cccc1C	22.9 µg/mL (≈ 84.4 µM)
CCOC(=O)c1cnc2c(ccc3ccccc32)c1Cl	< 0.6 µg/mL
CNc1snc(C)c1C(=O)OC(C)C(=O)Nc1ccccc1 (centres undefined)	34.5 µg/mL (≈ 108 µM)
CN1CCCC(OC(=O)c2ccccc2F)C1.Cl (centres undefined)	39.7 µg/mL
COC(=O)C1=C(C)Nc2nc3ccccc3n2C1c1ccccc1F (centres undefined)	0.3 µg/mL (≈ 0.889 µM)
CCCOc1cccc(C(=O)Nc2ccc(CN3CCOCC3)cc2)c1	47.2 µg/mL (≈ 133 µM)
COC(=O)c1ccncc1C(=O)Nc1ccc(OC)cc1	39.4 µg/mL (≈ 138 µM)
O=C(O)C1=NN(c2c(F)c(F)cc(F)c2F)C(=O)CC1	> 43.5 µg/mL
CCCCNC(=O)c1ccc(CS(=O)(=O)c2ccc(C)cc2)o1	> 50.3 µg/mL
COc1cc(OC)cc(C(=O)NCC(=O)OC(C)C(=O)NC(C)C2CC3CCC2C3)c1 (centres undefined)	> 64.9 µg/mL
O=C(O)CSc1c2c(nc3cc(C(=O)N4CCCC4)ccc13)CCCC2	48.6 µg/mL (≈ 131 µM)
CCc1nonc1NC(=O)c1oc2ccc(Cl)cc2c1C	< 0.2 µg/mL
O=C(CSc1nnc(-c2ccccc2F)o1)NC1CC1	> 44 µg/mL
CCC(=O)NC1CC2CCCC(C1)N2Cc1ccc(C)cc1 (centres undefined)	> 45.1 µg/mL
CN(C)c1ccc2nsnc2c1[N+](=O)[O-]	33.4 µg/mL (≈ 149 µM)
CN(C)CCNC(=O)C(=O)C1C(=O)Nc2ccccc21 (centres undefined)	> 41.3 µg/mL
Cn1cnc(NCc2ccccc2)c1[N+](=O)[O-]	1.2 µg/mL (≈ 5.17 µM)
O=C1C(Cl)=C(N2CCCCCC2)C(=O)N1c1ccc(Cl)cc1	26.2 µg/mL (≈ 77.2 µM)
N#Cc1cccc(C(=O)Nc2ccc(S(=O)(=O)Nc3nccs3)cc2)c1	> 57.7 µg/mL
Br.COc1ccc(C2=CSC3=NCCN23)cc1Br	54.4 µg/mL
O=C(O)c1ccc(S(=O)(=O)N2CCSCC2)cc1	42.9 µg/mL (≈ 149 µM)
O=C(C1=C(O)C(=O)N(CCOCCO)C1c1ccccn1)c1cccs1 (centres undefined)	> 56.2 µg/mL
Cc1cccc(NS(=O)(=O)c2ccc(C(=O)N3CCC3)cc2)c1C	50.8 µg/mL (≈ 147 µM)

Structure (SMILES)	solubility kinetic
CN(CC(=O)Nc1ccccc1Br)C(=O)CN1CCN(Cc2cccc(Cl)c2)CC1	> 74.1 µg/mL
Cc1cccc(C)c1NC(=O)CN1C(=O)C(C)Oc2ccccc21 (centres undefined)	11.6 µg/mL (≈ 35.8 µM)
CN(C)S(=O)(=O)c1ccc(NC(=O)Cn2ccsc2=N)cc1	48 µg/mL (≈ 141 µM)
C=CCn1c(O)c(C(C)=NC2CCN(Cc3ccccc3)CC2)c(=O)[nH]c1=O	53.6 µg/mL (≈ 140 µM)
CC1CC1C(=O)N(C)CC(=O)Nc1ccccc1Br (centres undefined)	> 48.8 µg/mL
Cl.N[C@@H]1C[C@H]1c1ccccc1	> 25.4 µg/mL
O=C(CNC(=O)COc1ccccc1)NCCc1ccccn1	> 47 µg/mL
CN(C)Cc1c(O)ccc2c(=O)c(-c3ccccc3Cl)coc12	> 49.5 µg/mL
Cc1cc(C(=O)N2CCN(c3ccc([N+](=O)[O-])cc3)CC2)c(C)o1	20.3 µg/mL (≈ 61.6 µM)
COc1ccc(C2SCC(=O)N2c2ccc(C)cc2)cc1 (centres undefined)	37.5 µg/mL (≈ 125 µM)
CN(C)S(=O)(=O)c1ccc(C(=O)Nc2ccc3nc(N4CCOCC4)sc3c2)cc1	4.1 µg/mL (≈ 9.18 µM)
CC(Oc1ccccc1)C(=O)N1CCN=C1SCc1ccccc1 (centres undefined)	19.9 µg/mL (≈ 58.5 µM)
S=C(NCc1ccncc1)Nc1cc(Cl)cc(Cl)c1	5.6 µg/mL (≈ 17.9 µM)
Cc1cc([N+](=O)[O-])nn1CC(=O)NCc1ccccc1	> 41.1 µg/mL
CSc1nc(N)cc(=O)[nH]1	> 23.6 µg/mL
Cc1ccc(NC(=S)Nc2cccc(-c3n[nH]c(=S)o3)c2)cc1	> 51.4 µg/mL
CCOc1ccc(N=C2SCC(=O)N2CC)cc1	33.6 µg/mL (≈ 127 µM)
O=C(COC(=O)COc1ccccc1)NCc1ccc2c(c1)OCO2	> 51.5 µg/mL
Cn1cccc1C(=O)C(=O)Nc1ccccc1C(F)(F)F	5 µg/mL (≈ 16.9 µM)
CCOC(=O)c1nc(Nc2ccc(OC)cc2)c2ccccc2n1	> 48.5 µg/mL
Cc1ccc(S(=O)(=O)NC2CCCC2)cc1C(N)=O	> 42.4 µg/mL
Cc1ccc(-c2c[n+](Cc3ccc(Cl)cc3)c3n2CCC3)cc1.[Cl-]	> 53.9 µg/mL
Cc1cc(-c2ccccc2)nc(SCc2ccc(C(=O)O)cc2)n1	43.5 µg/mL (≈ 129 µM)
